Publication PMC7876048, “Mutant-selective degradation by BRAF-targeting PROTACs” (Nature Communications, 2021)
“Also recorded” adds a separate entry of the source.

Experiments:
[1] = biological target: T1, BRAF^G469A (SK-MEL-246 cells, Class 2) (Homo sapiens, UniProt P15056, G469A); assay: BRAF degradation by immunoblot in SK-MEL-246 cells; format: cell-based
T1 construct: endogenous in cells; host or cells: SK-MEL-246
Experimental: (§1) Cells were plated in 6 well dishes (5 × 10^5–8 × 10^5 cells) and allowed to attach overnight. […] The plates were then placed on ice and washed 1x with chilled PBS and lysed in buffer containing 25 mM Tris-HCl [pH 7.4], 0.25% sodium deoxycholate, 150 mM NaCl, 1% Triton X-100, supplemented with protease inhibitors (1x Roche protease inhibitor cocktail) and phosphatase inhibitors (10 mM NaF, 1 mM Na3OV4, and 20 mM β-glycerophosphate). Lysates were then cleared at 21,000 g for 10 min at 4 °C. Protein concentrations of the supernatants were then quantified using a Pierce BCA Protein Assay. 12–40 µg of protein were separated using a gradient (4–20%) Criterion TGX precast gel and transferred unto a nitrocellulose membrane. The membranes were then blocked in 5% non-fat milk in TBST (Tris-buffered Saline with Tween 20) for 1 h before probing with the indicated primary antibody overnight. Membranes were imaged using Bio-Rad Image Lab software using ECL prime detection reagent (GE Healthcare, RPN2232 or ThermoScientific, 34095).
(§2) Western blot data was quantified by using the band feature in Image Lab, and values were averaged and analyzed in GraphPad Prism. DC50 and DMAX values were fitted using a three parameter [inhibitor] versus response and reported directly from the Prism output. Mean ± SD and unpaired t-tests were performed in GraphPad Prism.

[2] = system: CAL-12-T cells (Class 3, BRAF^G466V); assay: Cell proliferation (MTS) assay; format: cell-based; details: 5 days
Experimental: […] 2 mg/ml MTS (Promega Corp., Madison, WI: G5421) and 25 μM phenazine methosulfate (Sigma, St. Louis, MO) were combined 19:1 and then added to cells (1 volume combined reagent: 5 volumes medium) and incubated for 1–3 h. Mitochondrial reduction of MTS to the formazan derivative was monitored by measuring the medium’s absorbance at 480 nm using a Perkin Elmer Envision Plate reader.

[3] = system: BRAF (SK-MEL-239 cells, heterozygous BRAF^V600E); assay: BRAF degradation by immunoblot in SK-MEL-239 cells; format: cell-based
Experimental: as §1, §2

[4] = biological target: T2, BRAF^WT (SK-BR-3 cells, HER2 amplification) (Homo sapiens, UniProt P15056); assay: BRAF^WT degradation by immunoblot in SK-BR-3 cells; format: cell-based
T2 construct: endogenous in cells; host or cells: SK-BR-3
Experimental: as §1, §2

[5] = system: BRAF^WT : Cullin-2 association (NIH3T3 cells); assay: V5-BRAF immunoprecipitation, Cullin 2 association; format: cell-based; details: MEK inhibitor (1 µM cobimetinib, 2 h) pretreated NIH3T3 cells
Experimental: Doxycycline-induced NIH3T3 cells or 293 T-Rex cells that express indicated BRAF isoform were seeded in 10 cm dishes overnight. […] Cells were then placed on ice, washed with ice-cold 1X PBS, and lysed in 500 µL modified 1X lysis buffer (50 mM Tris-HCl, pH 7.4, 0.15 M NaCl, 1 mM EDTA, 1% NP40, 10% glycerol) containing 5 mM 1,10-phenanthroline monohydrate, 10 mM N-ethylmaleimide, 20 µM PR-619, and 1X protease inhibitor cocktail (Roche). Lysates were spun down at 14,000 × g at 4 °C for 10 min. Equal amounts of lysate was aliquoted onto 20 µL (bed volume) of anti-V5-beads (Sigma, A7345). V5-containing proteins were immunoprecipitated from lysates for 2 h at 4 °C with gentle rotation, after which samples were spun down at 6000 × g at 4 °C for 2 min and the beads were washed 4 times with DPBS. Beads were resuspended in 1X lithium dodecyl sulfate (LDS) sample buffer containing 5% 2-mercaptoethanol (ß-ME). Immunoprecipitated protein was eluted off the beads by heating at 95 °C for 5 min and the supernatant was run on an SDS-PAGE gel and evaluated for the presence of immunoprecipitated V5-tagged proteins, as well as Cullin 2. Input refers to the normalized input lysate loaded onto V5-sepharose beads.

[6] = biological target: T3, BRAF WT (Homo sapiens, UniProt P15056); assay: Elisa kinase inhibition assay (Carna Biosciences); format: biochemical; details: Km ATP, duplicate
T3 construct: purchased Carna Biosciences
Experimental: Kinase assays were performed by Carna Biosciences by their protocol in duplicate using Km amounts of ATP calculated for each kinase.

[7] = biological target: T4, BRAF-p61^V600E (HCC-364 vr1 cells) (Homo sapiens, UniProt P15056+P40337, DEL169-380/V600E); assay: BRAF degradation by immunoblot in HCC-364 vr1 cells; format: cell-based
T4 construct: endogenous in cells; host or cells: SK-MEL-239 C4; HCC-364 vr1
Experimental: as §1, §2

[8] = biological target: BRAF V600E (Homo sapiens, UniProt P15056, V600E); assay: Radiolabeled kinase assay (Reaction Biology); format: biochemical; set-up: purchased Reaction Biology Corps
Experimental: (§3) Kinase assays were performed by Reaction Biology Corps by their protocol in duplicate using Km amounts of ATP calculated for each kinase.

[9] = biological target: CRAF (Homo sapiens, UniProt P04049); assay: Radiolabeled kinase assay (Reaction Biology); format: biochemical
Experimental: as §3

[10] = biological target: T5, BRAF (K601E) (Homo sapiens, UniProt P15056, K601E); assay: Radiolabeled kinase assay (Reaction Biology); format: biochemical
T5 construct: purchased Reaction Biology Corps
Experimental: as §3

[11] = biological target: T6, BRAF (V600K) (Homo sapiens, UniProt P15056, V600K); assay: Radiolabeled kinase assay (Reaction Biology); format: biochemical
T6 construct: purchased Reaction Biology Corps
Experimental: as §3

[12] = biological target: T7, BRAF (V600D) (Homo sapiens, UniProt P15056, V600D); assay: Radiolabeled kinase assay (Reaction Biology); format: biochemical
T7 construct: purchased Reaction Biology Corps
Experimental: as §3

[13] = biological target: T8, ARAF (Homo sapiens, UniProt P10398); assay: Radiolabeled kinase assay (Reaction Biology); format: biochemical
T8 construct: purchased Reaction Biology Corps
Experimental: as §3

[14] = biological target: T9, BRAF (V600A) (Homo sapiens, UniProt P15056, V600A); assay: Radiolabeled kinase assay (Reaction Biology); format: biochemical
T9 construct: purchased Reaction Biology Corps
Experimental: as §3

[15] = biological target: T10, BRAF^WT (A-431 cells, HER1 amplification) (Homo sapiens, UniProt P15056); assay: BRAF^WT degradation by immunoblot in A-431 cells; format: cell-based
T10 construct: endogenous in cells; host or cells: A-431
Experimental: as §1, §2

[16] = biological target: T11, BRAF^V600E (SK-MEL-28 cells, homozygous) (Homo sapiens, UniProt P15056, V600E); assay: BRAF degradation by immunoblot in SK-MEL-28 cells; format: cell-based
T11 construct: endogenous in cells; host or cells: SK-MEL-28
Experimental: as §1, §2

[17] = 1 μM cobimetinib pre-treatment 1 hour, then 1 μM SJF-0628

T11 sequence (P15056 whole entry V600E): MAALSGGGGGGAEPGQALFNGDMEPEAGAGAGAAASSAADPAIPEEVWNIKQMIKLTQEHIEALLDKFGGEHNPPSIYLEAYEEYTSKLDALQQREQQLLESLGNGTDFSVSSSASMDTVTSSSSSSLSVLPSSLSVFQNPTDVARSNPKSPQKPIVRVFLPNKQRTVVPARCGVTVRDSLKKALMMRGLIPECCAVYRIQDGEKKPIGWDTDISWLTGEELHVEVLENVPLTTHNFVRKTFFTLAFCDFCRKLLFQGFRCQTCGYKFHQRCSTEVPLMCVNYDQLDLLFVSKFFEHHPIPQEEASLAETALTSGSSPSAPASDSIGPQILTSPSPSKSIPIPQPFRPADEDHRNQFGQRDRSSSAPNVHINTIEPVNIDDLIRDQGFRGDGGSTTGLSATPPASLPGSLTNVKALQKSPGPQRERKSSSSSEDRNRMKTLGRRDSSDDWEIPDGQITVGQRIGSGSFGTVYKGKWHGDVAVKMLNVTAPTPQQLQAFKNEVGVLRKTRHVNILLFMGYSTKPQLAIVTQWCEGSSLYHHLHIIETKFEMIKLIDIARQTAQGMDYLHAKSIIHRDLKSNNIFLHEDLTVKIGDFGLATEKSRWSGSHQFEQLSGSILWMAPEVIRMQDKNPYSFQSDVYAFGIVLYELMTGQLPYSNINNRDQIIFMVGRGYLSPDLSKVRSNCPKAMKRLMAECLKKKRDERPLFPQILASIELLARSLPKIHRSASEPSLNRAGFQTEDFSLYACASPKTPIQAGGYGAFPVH
T2 sequence (P15056 whole entry): as the sequence (P15056 whole entry V600E) above, with E600V counted along it
T4 sequence (P15056 with tags, fused parts or gaps DEL169-380/V600E): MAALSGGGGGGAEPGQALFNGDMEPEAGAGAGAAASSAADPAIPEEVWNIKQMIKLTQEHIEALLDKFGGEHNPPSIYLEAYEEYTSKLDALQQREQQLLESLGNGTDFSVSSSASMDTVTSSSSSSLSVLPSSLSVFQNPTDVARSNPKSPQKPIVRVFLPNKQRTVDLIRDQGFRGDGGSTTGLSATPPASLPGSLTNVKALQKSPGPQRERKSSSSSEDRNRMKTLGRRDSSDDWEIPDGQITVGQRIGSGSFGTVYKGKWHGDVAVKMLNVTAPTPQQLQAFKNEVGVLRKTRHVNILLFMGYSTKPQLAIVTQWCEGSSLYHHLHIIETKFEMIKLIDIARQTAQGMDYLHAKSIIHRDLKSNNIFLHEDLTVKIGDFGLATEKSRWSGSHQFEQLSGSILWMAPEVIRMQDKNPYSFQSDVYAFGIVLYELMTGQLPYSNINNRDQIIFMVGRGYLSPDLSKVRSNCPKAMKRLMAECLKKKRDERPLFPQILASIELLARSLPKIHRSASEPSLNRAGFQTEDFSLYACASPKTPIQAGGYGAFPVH
T4 sequence (P40337 whole entry, stated change not applied): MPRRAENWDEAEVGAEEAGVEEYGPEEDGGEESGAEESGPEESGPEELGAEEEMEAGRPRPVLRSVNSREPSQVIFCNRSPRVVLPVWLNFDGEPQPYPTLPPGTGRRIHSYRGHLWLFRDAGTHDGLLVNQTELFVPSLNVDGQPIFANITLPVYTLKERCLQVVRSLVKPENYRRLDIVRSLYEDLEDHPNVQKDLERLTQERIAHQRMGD
T4 sequence (Q15370 whole entry partner): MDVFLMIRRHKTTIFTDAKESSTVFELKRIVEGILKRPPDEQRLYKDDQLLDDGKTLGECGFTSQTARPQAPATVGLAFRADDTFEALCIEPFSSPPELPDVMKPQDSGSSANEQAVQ
T4 sequence (Q15369 whole entry partner): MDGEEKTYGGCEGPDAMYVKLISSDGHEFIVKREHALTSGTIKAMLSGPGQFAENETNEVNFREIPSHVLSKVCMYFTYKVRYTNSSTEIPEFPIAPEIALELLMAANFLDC
T10 sequence (P15056 whole entry): as the sequence (P15056 whole entry V600E) above, with E600V counted along it
T1 sequence (P15056 whole entry G469A): as the sequence (P15056 whole entry V600E) above, with G469A, E600V counted along it
BRAF V600E, sequence (P15056 whole entry V600E): as the sequence (P15056 whole entry V600E) above
T6 sequence (P15056 whole entry V600K): as the sequence (P15056 whole entry V600E) above, with E600K counted along it
T9 sequence (P15056 whole entry V600A): as the sequence (P15056 whole entry V600E) above, with E600A counted along it
T3 sequence (P15056 whole entry): as the sequence (P15056 whole entry V600E) above, with E600V counted along it
T7 sequence (P15056 whole entry V600D): as the sequence (P15056 whole entry V600E) above, with E600D counted along it
T8 sequence (P10398 whole entry): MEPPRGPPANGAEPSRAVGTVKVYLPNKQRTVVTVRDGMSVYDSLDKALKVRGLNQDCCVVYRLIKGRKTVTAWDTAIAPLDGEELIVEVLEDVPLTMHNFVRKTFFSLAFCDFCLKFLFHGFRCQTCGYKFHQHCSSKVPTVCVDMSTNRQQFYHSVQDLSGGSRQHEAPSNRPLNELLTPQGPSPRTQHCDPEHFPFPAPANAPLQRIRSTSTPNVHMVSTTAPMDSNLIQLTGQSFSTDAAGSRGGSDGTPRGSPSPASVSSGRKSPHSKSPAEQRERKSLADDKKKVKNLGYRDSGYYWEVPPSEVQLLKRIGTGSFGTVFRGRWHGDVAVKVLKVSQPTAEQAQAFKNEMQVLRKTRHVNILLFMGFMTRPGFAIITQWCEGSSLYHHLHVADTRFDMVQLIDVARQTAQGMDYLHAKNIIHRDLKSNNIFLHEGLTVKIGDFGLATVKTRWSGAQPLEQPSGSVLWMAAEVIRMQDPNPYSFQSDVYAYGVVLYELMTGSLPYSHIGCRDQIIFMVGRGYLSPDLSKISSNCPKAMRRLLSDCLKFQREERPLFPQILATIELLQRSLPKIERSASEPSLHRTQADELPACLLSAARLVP
CRAF, sequence (P04049 whole entry): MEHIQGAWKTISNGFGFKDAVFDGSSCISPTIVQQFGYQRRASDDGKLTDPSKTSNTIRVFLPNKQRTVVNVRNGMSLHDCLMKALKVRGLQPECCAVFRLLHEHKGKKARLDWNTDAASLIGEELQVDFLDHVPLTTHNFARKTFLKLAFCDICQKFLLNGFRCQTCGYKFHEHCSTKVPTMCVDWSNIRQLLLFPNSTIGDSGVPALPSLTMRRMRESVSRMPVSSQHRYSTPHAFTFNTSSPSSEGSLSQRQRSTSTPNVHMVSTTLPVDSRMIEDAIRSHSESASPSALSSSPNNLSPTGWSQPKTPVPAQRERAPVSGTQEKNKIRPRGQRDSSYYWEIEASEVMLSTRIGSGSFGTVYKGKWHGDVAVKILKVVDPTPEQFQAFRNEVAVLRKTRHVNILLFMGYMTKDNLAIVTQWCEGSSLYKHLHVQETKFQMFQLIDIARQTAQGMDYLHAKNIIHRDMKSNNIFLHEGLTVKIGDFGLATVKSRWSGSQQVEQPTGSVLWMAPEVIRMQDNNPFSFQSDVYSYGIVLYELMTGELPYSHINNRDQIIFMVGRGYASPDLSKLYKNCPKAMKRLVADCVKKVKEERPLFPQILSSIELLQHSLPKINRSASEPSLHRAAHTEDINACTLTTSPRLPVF
T5 sequence (P15056 whole entry K601E): as the sequence (P15056 whole entry V600E) above, with E600V, K601E counted along it

SMILES: CCCS(=O)(=O)Nc1ccc(F)c(C(=O)c2c[nH]c3ncc(-c4ccc(N5CCN(CC(=O)NC(C(=O)N6CC(O)CC6C(=O)NCc6ccc(-c7scnc7C)cc6)C(C)(C)C)CC5)cc4)cc23)c1F (stereo not drawn) [SJF-0628]
- DC50 [1]: 15 nM
- Dmax [1]: > 95%
- inhibition of cell growth / effect on cell viability [2]: minimal inhibition of cell growth; also recorded: minimal effect on cell viability
- BRAF degradation [3]: minimal BRAF degradation
- time at which complete degradation of BRAF^WT observed [4, 17]: 12 h
- time to PROTAC-induced degradation of BRAF^WT [4, 17]: ≤ 4 h
- degradation of BRAF^WT ([4]; PROTAC concentrations greater than 1 µM): ~ 50%
- SJF-0628-dependent BRAF^WT degradation ([4]; lapatinib 2-hour pre-treatment): 10%
- SJF-0628-dependent BRAF^WT degradation ([4]; without lapatinib pre-treatment): 48%
- increase in PROTAC-induced Cullin-2 association with BRAF^WT [5]: 4 fold
- IC50 [6]: 39.2 nM
- DC50 [7]: 147 nM
- Dmax ([7]; HCC364): > 90%
- IC50 [8]: 1.87 nM
- IC50 [9]: 37.6 nM
- IC50 [10]: 7.84 nM
- IC50 [11]: 0.49 nM
- IC50 [12]: 2.68 nM
- IC50 [13]: 0.27 nM
- IC50 [14]: 1.06 nM
- degradation of BRAF^WT ([15]; A-431 cells, PROTAC concentrations greater than 1 µM): ~ 30%
- PROTAC-dependent degradation of BRAF^WT ([15]; GDC-0623 pre-treatment (500 nM, 3 h), SJF-0628 20 h, A431 (also OVCAR-8, SK-BR-3)): minimal PROTAC-dependent degradation
- time for which BRAF^V600E degradation and p-ERK inhibition was sustained ([16]; 100 nM): up to 72 h
- recovery of BRAF levels and MAPK phosphorylation after wash-out ([16]; 100 nM 24 h treatment, wash-out, 24 h after): 30%
- time to near complete / maximal BRAF^V600E degradation ([16]; 100 nM time course): ≤ 4 h
- DC50 ([16]; 20-24 h treatment, read-out: DC50 (half-maximal degradation)): 6.8 nM
- Dmax ([16]; 20-24 h treatment, read-out: DMAX (percent of maximal degradation)): > 95%
